For 24 molecules, IC50 results are on record in patent US20250282768A1 (Janssen Pharmaceutica NV, priority 2022, published 2025).

A value given as a limit tells only on which side of the number the result lay.

The subject of this experiment is p-IKKa levels in L363 (NIK translocated multiple myeloma) cells. The experiment is described as follows: Assay 2: Effect of compounds on p-IKKa levels in L363 (NIK translocated multiple myeloma) cells. It is filed as cell-based. The following applies: Homo sapiens, L-363, 6 h, read-out: Assay 2 IC50 (nM), p-IKKa (Ser 176/180) in BAFF stimulated L363 cells with MG132, 6 h; average if tested more than once. Here is the method: Assay 2: Effect of Compounds on p-IKKa Levels in L363 (NIK Translocated Multiple Myeloma) Cells
All compounds tested were dissolved and serially diluted in DMSO, 1:3 dilution for 11 points in an Echo compatible plate. 100% DMSO was added to columns 12 and 24 of the plate to serve as high and low signal controls. This compound plate was used to spot 20 nL of compound or DMSO into a Greiner 384 well TC plate (781080). The final DMSO concentration was 0.3% (v/v) in cell assays. Human L363 cells (ATCC) were cultured in RPM11640 medium supplemented with GlutaMax, non-essential amino acids, sodium pyruvate and 10% fetal bovine serum. Cells were routinely maintained at densities of 0.2×10^6 cells per ml—2×10^6 cells per mL at 37° C. in a humidified 5% CO2 atmosphere incubator. Cells were passaged twice a week splitting back to obtain the low density. The day before the assay, cells were washed twice in HBSS (Hank's Balanced Salt Solution), resuspended in Dulbecco's Modified Eagle Medium (DMEM)+0.5% IgG and protease free BSA (Jackson Immuno Research Laboratories), +/−250 ng/ml recombinant human B-cell activating factor (BAFF/BLyS/TNFSF13B) and incubated overnight at 37° C. in a humidified 5% CO2 atmosphere (bulk stimulation with or without BAFF). The next day, the cell concentration was adjusted to 1×10^7 cells/ml in DMEM+/−250 ng/ml BAFF +/−10 μM MG132 and plated at 10 μl/well into compound or DMSO spotted 384 well TC plates. Seeded cells were incubated at 37° C. in a humidified 5% CO2 atmosphere for 6 h. After 6 h, the plates were removed from the incubator and cell lysis was achieved by the addition of 2.5 μl 5×lysis buffer containing protease and phosphatase inhibitors, followed by shaking on a plate shaker at room temperature for 15 min. At the end of this incubation, lysed cells were sequentially treated and incubated with acceptor and donor bead mixes according to the manufacturer's protocol for a 1 plate/2-incubation suspension cell assay (AlphaLISA SureFire Ultra p-IKKa (Ser 176/180) Assay Kit (Perkin Elmer). Plates were read using an EnVision Multilabel Plate Reader (Perkin Elmer). Within an experiment, a concentration response curve for each compound was run in duplicate. The signal obtained in the test wells was normalized using high signal (BAFF stimulated cells, DMSO, MG132) and low signal (unstimulated cells, DMSO) controls. To determine the IC50, a sigmoidal curve was fitted to the plot of % inhibition versus Log10 compound concentration.
As to `C[C@H](Nc1nccc(-c2cccc(-c3cc([C@]4(O)CCN(C)C4=O)on3)n2)n1)c1cnc2ccccn12` (single isomer, unassigned) [Example 161], the IC50 lay within 50 to 500 nM.
On to `CC(C)[C@@H](Nc1nccc(-c2cccc(-c3cc([C@]4(O)CCN(C)C4=O)on3)n2)n1)c1cnn(C)c1` (single isomer, unassigned) [Example 162], for which the IC50 was above 500 nM.
For `CC(C)[C@H](Nc1nccc(-c2cccc(-c3cc([C@]4(O)CCN(C)C4=O)on3)n2)n1)c1cnn(C)c1` (single isomer, unassigned) [Example 163] the value was 50 to 500 nM; for `C[C@@H](Nc1nccc(-c2cccc(-c3cc([C@]4(O)CCN(C)C4=O)on3)n2)n1)c1ccn2ccnc2c1` (single isomer, unassigned) [Example 164], above 500 nM; for `C[C@H](Nc1nccc(-c2cccc(-c3cc([C@]4(O)CCN(C)C4=O)on3)n2)n1)c1ccn2ccnc2c1` (single isomer, unassigned) [Example 165], 50 to 500 nM.
Under `CN1CC[C@@](O)(c2cc(-c3cccc(-c4ccnc(Nc5ccn(C)n5)n4)n3)n(C)n2)C1=O` (single isomer, unassigned) [Example 166, (*R)-3-Hydroxy-1-methyl-3-(1-methyl-5-(6-(2-((1-methyl-1H-pyrazol-3-yl)amino)pyrimidin-4-yl)pyridin-2-yl)-1H-pyrazol-3-yl)pyrrolidin-2-one] stands above 500 nM.
For `COc1nn(CC(F)F)cc1Nc1nccc(-c2cccc(-c3cnc([C@]4(O)CCN(C)C4=O)s3)n2)n1` (single isomer, unassigned) [Example 188, (*R)-3-(5-(6-(2-((1-(2,2-Difluoroethyl)-3-methoxy-1H-pyrazol-4-yl)amino)pyrimidin-4-yl)pyridin-2-yl)thiazol-2-yl)-3-hydroxy-1-methylpyrrolidin-2-one] the value was below 50 nM; for `COc1nn(CC(F)F)cc1Nc1nccc(-c2cccc(-c3cc([C@@]4(O)CCN(C)C4=O)n[nH]3)n2)n1` (single isomer, unassigned) [Example 189, (*R)-3-(5-(6-(2-((1-(2,2-Difluoroethyl)-3-methoxy-1H-pyrazol-4-yl)amino)pyrimidin-4-yl)pyridin-2-yl)-1H-pyrazol-3-yl)-3-hydroxy-1-methylpyrrolidin-2-one], below 50 nM; for `CC1OCCn2ncc(Nc3nccc(-c4cccc(-c5cc([C@]6(O)CCN(C)C6=O)on5)n4)n3)c21` (single isomer, unassigned) [Example 195, (R)-3-Hydroxy-1-methyl-3-(3-(6-(2-(((*R)-4-methyl-6,7-dihydro-4H-pyrazolo[5,1-c][1,4]oxazin-3-yl)amino)pyrimidin-4-yl)pyridin-2-yl)isoxazol-5-yl)pyrrolidin-2-one], below 50 nM.
Take `CN1CC[C@@](O)(c2cc(-c3cccc(-c4ccnc(Nc5cnn(C)c5C(F)F)n4)n3)no2)C1=O` (single isomer, unassigned) [Example 198, (*R)-3-(3-(6-(2-((5-(Difluoromethyl)-1-methyl-1H-pyrazol-4-yl)amino)pyrimidin-4-yl)pyridin-2-yl)isoxazol-5-yl)-3-hydroxy-1-methylpyrrolidin-2-one]: the IC50 was below 50 nM.
Under `COCCn1ccc(Nc2nccc(-c3cccc(-c4cc([C@]5(O)CCN(C)C5=O)on4)n3)n2)n1` (single isomer, unassigned) [Example 199, (*R)-3-Hydroxy-3-(3-(6-(2-((1-(2-methoxyethyl)-1H-pyrazol-3-yl)amino)pyrimidin-4-yl)pyridin-2-yl)isoxazol-5-yl)-1-methylpyrrolidin-2-one] stands below 50 nM; under `CN1CC[C@H](n2cc(Nc3nccc(-c4cccc(-c5cc([C@]6(O)CCN(C)C6=O)on5)n4)n3)cn2)[C@@H](F)C1` (single isomer, unassigned) [Example 201], below 50 nM; under `CN1CC[C@@H](n2cc(Nc3nccc(-c4cccc(-c5cc([C@]6(O)CCN(C)C6=O)on5)n4)n3)cn2)[C@H](F)C1` (single isomer, unassigned) [Example 202], below 50 nM.
For `CN1CC[C@H](n2cc(Nc3nccc(-c4cccc(-c5cc([C@]6(O)CCN(C)C6=O)on5)n4)n3)cn2)C1` (single isomer, unassigned) [Example 203, (R)-3-Hydroxy-1-methyl-3-(3-(6-(2-((1-((*S)-1-methylpyrrolidin-3-yl)-1H-pyrazol-4-yl)amino)pyrimidin-4-yl)pyridin-2-yl)isoxazol-5-yl)pyrrolidin-2-one] the value was 50 to 500 nM.
Under `CN1CC[C@@](O)(c2cc(-c3cccc(-c4ccnc(N[C@@H]5CCCC[C@@H]5O)n4)n3)no2)C1=O` (single isomer, unassigned) [Example 336] stands above 500 nM; under `CN1CC[C@@](O)(c2cc(-c3cccc(-c4ccnc(N[C@H]5CCCC[C@H]5O)n4)n3)no2)C1=O` (single isomer, unassigned) [Example 337], above 500 nM; under `C[C@H]1OCC[C@@H]1Nc1nccc(-c2cccc(-c3cc([C@]4(O)CCN(C)C4=O)on3)n2)n1` (single isomer, unassigned) [Example 346], 50 to 500 nM.
In the case of `C[C@@H]1OCC[C@@H]1Nc1nccc(-c2cccc(-c3cc([C@]4(O)CCN(C)C4=O)on3)n2)n1` (single isomer, unassigned) [Example 347], the IC50 lay within 50 to 500 nM.
For the molecule `C[C@H](Nc1nccc(-c2cccc(-c3cc([C@]4(O)CCN(C)C4=O)no3)n2)n1)c1cnn(C)c1` (single isomer, unassigned) [Example 400], the IC50 was above 500 nM.
In the case of `C[C@@H](Nc1nccc(-c2cccc(-c3cc([C@]4(O)CCN(C)C4=O)no3)n2)n1)c1cnn(C)c1` (single isomer, unassigned) [Example 401], the IC50 is below 50 nM.
For `C[C@@H](Nc1nccc(-c2cccc(-c3cc([C@]4(O)CCN(C)C4=O)on3)n2)n1)c1ccn(C)n1` (single isomer, unassigned) [Example 404, (R)-3-Hydroxy-1-methyl-3-(3-(6-(2-(((*R)-1-(1-methyl-1H-pyrazol-3-yl)ethyl)amino)pyrimidin-4-yl)pyridin-2-yl)isoxazol-5-yl)pyrrolidin-2-one] the value was above 500 nM; for `C[C@H](Nc1nccc(-c2cccc(-c3cc([C@]4(O)CCN(C)C4=O)on3)n2)n1)c1ccn(C)n1` (single isomer, unassigned) [Example 405, (R)-3-hydroxy-1-methyl-3-(3-(6-(2-(((*S)-1-(1-methyl-1H-pyrazol-3-yl)ethyl)amino)pyrimidin-4-yl)pyridin-2-yl)isoxazol-5-yl)pyrrolidin-2-one], 50 to 500 nM.
Consider `CN1CC[C@@](O)(c2cnn(-c3cccc(-c4ccnc(Nc5cnn(C)c5Cl)n4)n3)c2)C1=O` (single isomer, unassigned) [Example 411, (*R)-3-(1-(6-(2-((5-Chloro-1-methyl-1H-pyrazol-4-yl)amino)pyrimidin-4-yl)pyridin-2-yl)-1H-pyrazol-4-yl)-3-hydroxy-1-methylpyrrolidin-2-one], for which the IC50 fell in the range of 50 to 500 nM.
Under `C[C@@H](CC(F)(F)F)Nc1nccc(-c2cccc(-c3cc([C@]4(O)CCN(C)C4=O)on3)n2)n1` (single isomer, unassigned) [Example 437, (R)-3-Hydroxy-1-methyl-3-(3-(6-(2-(((*S)-4,4,4-trifluorobutan-2-yl)amino)pyrimidin-4-yl)pyridin-2-yl)isoxazol-5-yl)pyrrolidin-2-one] stands 50 to 500 nM.
